Assay results reported in publication PMC6615261, “Repurposing Azithromycin and Rifampicin Against Gram-Negative Pathogens by Combination With Peptidomimetics” (Frontiers in Cellular and Infection Microbiology, 2019).
Read-outs that look alike come from different tables or passages of the source.

Legend:
NIH 3T3 cells = assay: MTS/PMS cell viability assay; type: cell-based, mouse; settings: 1 h exposure, read-out: Cytotoxicity NIH 3T3 EC50 ± SD
Procedure: (§1) NIH 3T3 and HepG2 cells (both from ATCC, Manassas, VA, USA) were cultured in flat-bottomed 96-well MicroWell™ plates (NUNC, Roskilde, Denmark) at seeding densities of ~23,000 and ~22,000 cells/well, respectively, and then cultured for 22–24 h under standard culturing conditions (37°C, 5% CO2, humidified air) to reach 80–90% confluence. NIH 3T3 were cultured in Dulbecco's modified Eagle's medium (DMEM) supplemented with 10% (v/v) newborn-calf serum (NCS) (Gibco, Paisly, UK), while HepG2 were cultured in Eagle's minimum essential medium (EMEM) supplemented with 10% (v/v) fetal bovine serum (FBS, Gibco, Paisly, UK), sodium pyruvate (1 mM), and non-essential amino acids (1%, v/v). Both culturing media were further supplemented with penicillin (100 U/mL), streptomycin (100 μg/mL), and L-glutamine (2 mM).
(§2) Effect on cell viability was determined in NIH 3T3 fibroblasts and HepG2 hepatocytes by using the MTS/PMS assay measuring metabolic activity. Briefly, the adhered cells were washed with 37°C Hanks' balanced salt solution (HBSS from Sigma-Aldrich, St. Louis, MO, USA), containing 10 mM HEPES (AppliChem, Darmstadt, Germany), and adjusted to pH 7.4, and were then exposed for 1 h to 100 μL of test compound(s) dissolved in the appropriate culturing medium without serum for each cell line. After exposure the cells were washed with HBSS containing 10 mM HEPES (pH 7.4) and 100 μL of an MTS/PMS solution, consisting of 240 μg/mL MTS (Promega, Madison, WI, USA) and 2.4 μg/mL PMS (SigmaAldrich, Buchs, Switzerland) in HBSS, was added to the cells, which then were incubated for 1 h at 37°C with horizontal shaking under light protection. Absorbance was measured at 492 nm by using a POLARstar OPTIMA plate reader (BMG Labtech, Offenburg, Germany). The relative viability was calculated according to Equation (1) with absorbance values obtained after incubation of cells with test compound; incubation with SDS (0.2%, w/v in medium) defined 100% cell death (Abspos), while the absorbance of cells incubated with medium defined 0% cell death (Absneg).
(§3) (1) Relative viability(%)=(Abssample-Abspos)/(Absneg-Abspos)×100%
(§4) EC50 values were calculated by using GraphPad Prism 7 (GraphPad Software, La Jolla, CA, USA) via fitting of the relative cell viability to the concentration of the test compound by using Equation (2):
(§5) (2) Relative viability(%)= Top-Bottom/1+10^(LogIC50-Log[peptidomimetic]) ×Hill slope
(§6) With top and bottom representing the mean highest and lowest observed values, respectively. The Hill slope represents a factor for the steepness of the linear part of the curve. In order to prevent erroneous calculation, the top and bottom values were constrained to 100 and 0%, respectively. Data were collected from technical triplicates. The selectivity index was calculated as the average effect on cell viability (EC50 values for HepG2 and NIH 3T3 cells) divided by the MIC.

[1] = MTS/PMS cell viability assay; type: cell-based, mouse; settings: mouse, NIH 3T3 fibroblasts, 1 h exposure, read-out: Cytotoxicity NIH 3T3 EC50 ± SD
Procedure: as §1, §2, §3, §4, §5, §6

[2] = MTS/PMS cell viability assay; type: cell-based; settings: human, HepG2 hepatocytes, 1 h exposure, read-out: Cytotoxicity HepG2 EC50 ± SD
Procedure: as §1, §2, §3, §4, §5, §6

P. aeruginosa ATCC 27853 [3] = settings: for Antibiotic MIC in combination (AZM) / Antibiotic MIC in combination (RIF) / Peptidomimetic MIC alone / Peptidomimetic MIC in combination: P. aeruginosa ATCC 27853; for Antibiotic MIC in combination (AZM): MIC of azithromycin combined with the labelled peptidomimetic; for Antibiotic MIC in combination (RIF): MIC of rifampicin combined with the labelled peptidomimetic; for Peptidomimetic MIC alone: checkerboard; for Reduction of the MIC of azithromycin: P. aeruginosa, sub-MIC concentrations of peptidomimetic
Outline: (§7)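 Two-dimensional checkerboard broth microdilution in MHB II, with twofold dilutions of peptidomimetic and antibiotic on crossed axes and 18–20 h incubation per CLSI. FICI = MICA(A+B)/MICA(alone) + MICB(A+B)/MICB(alone); ≤0.5 is interpreted as synergy.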

K. pneumoniae ST258 [4] = settings: for Antibiotic MIC in combination (AZM): MIC of azithromycin combined with the labelled peptidomimetic; for Antibiotic MIC in combination (RIF): MIC of rifampicin combined with the labelled peptidomimetic; for Peptidomimetic MIC alone: checkerboard
Outline: as §7

E. coli ST131 [5] = settings: for Antibiotic MIC in combination (AZM): MIC of azithromycin combined with the labelled peptidomimetic; for Antibiotic MIC in combination (RIF): MIC of rifampicin combined with the labelled peptidomimetic; for Peptidomimetic MIC alone: checkerboard
Outline: as §7

E. coli ST131 [6] = assay: MIC by broth microdilution; type: cell-based, Escherichia coli; settings: for Selectivity Index (SI) E. coli ST131: average of EC50 (HepG2, NIH 3T3) divided by MIC; for MIC E. coli ST131: peptidomimetic alone
Procedure: (§8) Minimal inhibitory concentrations (MICs) of peptidomimetics, antibiotics and their combinations were determined by broth microdilution according to the Clinical Laboratory Standards Institute performance standards (Clinical and Laboratory Standards Institute, [2013]). […] Since rifampicin and azithromycin mainly are used to treat infections with Gram-positive pathogens only CLSI clinical breakpoints were available for such bacteria. […] Potentiation of additional antibiotics by peptidomimetics was determined by using commercial 96-well plates containing varied concentrations of standard antibiotics (COMPAN1F; Trek Diagnostic Systems Inc.). The peptidomimetics were added immediately prior to inoculation with pathogen, and then MICs were determined as above. The MICs of peptidomimetic/antibiotic combinations were determined according to the method above, and the concentration ratios were selected based upon checkerboard results with 2:1 and 1:4 ratio of peptidomimetic with rifampicin or azithromycin, respectively. Minimal bactericidal concentrations (MBCs) were determined by using growth-curve assay plates. MIC plates were prepared as above, and then the plates were incubated at 37°C with continuous shaking. Growth was recorded at 10 min intervals as optical density (OD) at 600 nm during 24 h. At 24 h, for wells without growth, a sample was diluted 10-fold in sterile saline (0.9% sodium chloride) and plated onto MHA, following CLSI guidelines (Clinical and Laboratory Standards Institute, [1999]).

K. pneumoniae ST258 [7] = assay: MIC by broth microdilution; type: cell-based, Klebsiella pneumoniae; settings: for Selectivity Index (SI) K. pneumoniae ST258: average of EC50 (HepG2, NIH 3T3) divided by MIC; for MIC K. pneumoniae ST258: peptidomimetic alone
Procedure: as §8

NIH 3T3 and HepG2 cells = assay: Effect on viability of mammalian cells (both cell lines); type: cell-based, mouse and human
Procedure: as §1, §2, §3, §4, §5
With top and bottom representing the mean highest and lowest observed values, respectively. The Hill slope represents a factor for the steepness of the linear part of the curve. […] The selectivity index was calculated as the average effect on cell viability (EC50 values for HepG2 and NIH 3T3 cells) divided by the MIC.

MDR E. coli ST131 = assay: Screening of peptidomimetic-antibiotic combinations (growth / growth inhibition); type: cell-based, Escherichia coli; design: key to Growth in combination with RIF / Growth in combination with AZM: Growth (+); growth inhibition (–); settings: for Growth in combination with AZM: peptidomimetic 0.5 μM + azithromycin 1 μg/mL; for Growth in combination with RIF: peptidomimetic 0.5 μM + rifampicin 0.5 μg/mL
P. aeruginosa ATCC 27853 [8] = assay: MIC by broth microdilution; type: cell-based, Pseudomonas aeruginosa; settings: for Selectivity Index (SI) P. aeruginosa ATCC 27853: average of EC50 (HepG2, NIH 3T3) divided by MIC; for MIC P. aeruginosa ATCC 27853: peptidomimetic alone
Procedure: as §8

K. pneumoniae ST258 [9] = assay: Screening of peptidomimetic-antibiotic combinations (growth / growth inhibition); type: cell-based, Klebsiella pneumoniae; design: key to Growth in combination with RIF / Growth in combination with AZM: Growth (+); growth inhibition (–); settings: for Growth in combination with AZM: peptidomimetic 0.5 μM + azithromycin 1 μg/mL; for Growth in combination with RIF: peptidomimetic 0.5 μM + rifampicin 0.5 μg/mL
[10] = tested on: pro-inflammatory effect of LPS; design: method as in Skovbakke et al., 2015; settings: at 1 μM; ref Skovbakke et al., 2015; cited from earlier work

SMILES	EC50 at 1 h [1] [µM]	EC50 at 1 h [2] [µM]	Antibiotic MIC in combination (AZM) (P. aeruginosa ATCC 27853 [3]) [µg/mL]	Antibiotic MIC in combination (RIF) (P. aeruginosa ATCC 27853 [3]) [µg/mL]	Peptidomimetic MIC alone (P. aeruginosa ATCC 27853 [3]) [µM]	Peptidomimetic MIC in combination (P. aeruginosa ATCC 27853 [3]; combined with AZM) [µM]	Peptidomimetic MIC in combination (P. aeruginosa ATCC 27853 [3]; combined with RIF) [µM]	Reduction of the MIC of azithromycin (P. aeruginosa ATCC 27853 [3])	Antibiotic MIC in combination (AZM) (K. pneumoniae ST258 [4]) [µg/mL]	Antibiotic MIC in combination (RIF) (K. pneumoniae ST258 [4]) [µg/mL]	Peptidomimetic MIC alone (K. pneumoniae ST258 [4]) [µM]	Antibiotic MIC in combination (AZM) (E. coli ST131 [5]) [µg/mL]	Antibiotic MIC in combination (RIF) (E. coli ST131 [5]) [µg/mL]	Peptidomimetic MIC alone (E. coli ST131 [5]) [µM]	Peptidomimetic MIC in combination (E. coli ST131 [5]; combined with AZM) [µM]	Peptidomimetic MIC in combination (E. coli ST131 [5]; combined with RIF) [µM]	Selectivity Index (SI) E. coli ST131 (E. coli ST131 [6])	MIC E. coli ST131 (E. coli ST131 [6]) [µM]	Selectivity Index (SI) K. pneumoniae ST258 (K. pneumoniae ST258 [7])	MIC K. pneumoniae ST258 (K. pneumoniae ST258 [7]) [µM]	also measured
COCCOCCOCC(=O)N[C@@H](CCCCN)C(=O)N(CCC(=O)N[C@@H](CCCCNC(=N)N)C(=O)N(CCC(=O)N[C@@H](CCCCN)C(=O)N(CCC(=O)N[C@@H](CCCCNC(=N)N)C(=O)N(CCC(=O)N[C@@H](CCCCN)C(=O)N(CCC(=O)N[C@@H](CCCCNC(=N)N)C(=O)N(CCC(N)=O)[C@@H](C)c1ccccc1)[C@@H](C)c1ccccc1)[C@@H](C)c1ccccc1)[C@@H](C)c1ccccc1)[C@@H](C)c1ccccc1)[C@@H](C)c1ccccc1 [Peptidomimetic 28, TODA-(Lys-βNspe-hArg-βNspe)3-NH2]	~218	118 ± 2.05	0.5	0.06	16	2	4	32- to 512 fold	4	0.5	16	0.5	0.13	2	0.5	0.5	(84)	2	(10)	16	EC50 (NIH 3T3 cells): 218 ± 18.1 µM; Peptidomimetic MIC in combination (K. pneumoniae ST258 [4]; combined with AZM): 2 µM; Peptidomimetic MIC in combination (K. pneumoniae ST258 [4]; combined with RIF): 1 µM; EC50 (NIH 3T3 and HepG2 cells): > 100 µM; Growth in combination with AZM (MDR E. coli ST131): –; Growth in combination with RIF (MDR E. coli ST131): –; Selectivity Index (SI) P. aeruginosa ATCC 27853 (P. aeruginosa ATCC 27853 [8]): (10); MIC P. aeruginosa ATCC 27853 (P. aeruginosa ATCC 27853 [8]): 16 µM; Growth in combination with AZM (K. pneumoniae ST258 [9]): +; Growth in combination with RIF (K. pneumoniae ST258 [9]): +
CC(=O)N[C@@H](CCCCN)C(=O)N(CCC(=O)N[C@@H](CCCCN)C(=O)N(CCC(=O)N[C@@H](CCCCN)C(=O)N(CCC(=O)N[C@@H](CCCCN)C(=O)N(CCC(=O)N[C@@H](CCCCN)C(=O)N(CCC(=O)N[C@@H](CCCCN)C(=O)N(CCC(N)=O)Cc1ccccc1)Cc1ccccc1)Cc1ccccc1)Cc1ccccc1)Cc1ccccc1)Cc1ccccc1 [Peptidomimetic 14, Ac-(Lys-βNPhe)6-NH2]	323	234	1	1	16	4	4	32- to 512 fold	4	1	64	1	0.25	4	0.25	0.25	(70)	4	(4)	64	Block of the pro-inflammatory effect of LPS [10]: block the pro-inflammatory effect of LPS; Growth in combination with AZM (MDR E. coli ST131): –; Growth in combination with RIF (MDR E. coli ST131): –; Selectivity Index (SI) P. aeruginosa ATCC 27853 (P. aeruginosa ATCC 27853 [8]): (17); MIC P. aeruginosa ATCC 27853 (P. aeruginosa ATCC 27853 [8]): 16 µM; Growth in combination with AZM (K. pneumoniae ST258 [9]): +; Growth in combination with RIF (K. pneumoniae ST258 [9]): +
